Results: patent US20240108634A1, “COMPOSITIONS AND METHODS FOR INHIBITING YAP” (The United States Government as represented by the …, priority 2021, published 2024)

Columns and labels:
full-length YAP = target: T1, full-length YAP (Homo sapiens, UniProt P46937); experiment: Surface plasmon resonance of NSC682769 analyte on immobilized full-length YAP; conditions: SPR, 25° C., read-out: Kd from steady-state binding
T1 construct: made in house; host or cells: bacterial (inferred)
Method: (§1) FIGS. 1A-G show the identification of a YAP1-TEAD1 binding interface inhibitor. […] The Gal4 DBD was fused to residues 50-171 of human YAP1 and the Gal4 AD was fused to residues 194-411 of human TEAD1. These fusions were expressed in yeast containing reporters harboring Gal4 upstream activating sequences (UAS). […] Yeast expressing either p53-DBD and SV40 large T antigen-AD fusions or YAP1-DBD and TEAD1-AD fusions were plated on selective media. Compounds were pinned onto the plate surfaces by robotic transfer and subsequently examined for halo formation (indicated by red circles). Compounds inhibiting YAP1-TEAD1 mediated growth on selective media while having no effect on p53-T antigen mediated yeast growth were considered specific. […] Pull-down products were analyzed by SDS-PAGE and silver staining. […] Raw binding sensorgrams obtained at each concentration were fitted to a 1:1 binding model and Kon, Koff and KD were calculated by simultaneous non-linear regression analyses.
Surface plasmon resonance (SPR), ELISA, YAP-TEAD reporter activity, cellular fractionation, and immunofluorescence analyses. […] YAP-TEAD reporter activity was determined as previously described (Kim N G, Gumbiner B M (2015) J Cell Biol 210: 503-515). […] Luciferase activity was measured via a luciferase assay system (Promega). […] Cell lysis was monitored by trypan blue staining. […]

[1] = target: T2, YAP1 (residues 50-171) / TEAD1 (residues 194-411) association (Homo sapiens, UniProt P46937); experiment: In vitro GST pull-down of His-tagged YAP1 with GST-TEAD1; format: binding; conditions: concentration-dependent
T2 construct: His; made in house
Method: as §1, with “circles).” for “circles). Compounds inhibiting YAP1-TEAD1 mediated growth on selective media while having no effect on p53-T antigen mediated yeast growth were considered specific.”
Results. […] To examine the mechanism by which NSC682769 inhibits YAP, the ability of full-length human YAP1 to bind to NSC682769 cross-linked affinity beads prepared using a photo-cross-linking procedure (Holmes B, et al. (2016) J Biol Chem 291: 14146-14159) was determined. Recombinant YAP was incubated with control, IRES-J007 (negative control), or NSC682769-coupled beads and binding analyzed by immunoblotting for YAP (FIG. 1F). […]

normal human neurons = experiment: TUNEL staining of normal human neurons; format: cell-based; conditions: 48 h exposures
From the text: Data shown are mean+S.D., n=3.
Materials and Methods. Cell culture, vectors and reagents. Normal mature human neurons were obtained from ScienCell (Carlsbad, CA). Lines were routinely tested to confirm the absence of mycoplasma and authenticated by short tandem repeat profiling (ATCC). The myc-tagged TEAD (pRK5-Myc-TEAD1) and HA-tagged YAP1 (pCl-HA-YAP) vectors were used for mammalian expression and TEAD was subcloned into pGEX-2TK, while YAP was subcloned into pET-14b for bacterial expression and purification. DNA transfections were performed using Effectene transfection reagent according to the manufacturer (QIAGEN) and lentiviral transductions were performed as previously described (Rosenbluh J, et al. (2012) Cell 151: 1457-1473). Large-scale syntheses of NSC682769 was performed by New England Discovery Partners, Branford, CT. The other reagents including kits for ALT, AST and creatinine level determinations were from Sigma-Aldrich.

T2 sequence (P46937 50-171): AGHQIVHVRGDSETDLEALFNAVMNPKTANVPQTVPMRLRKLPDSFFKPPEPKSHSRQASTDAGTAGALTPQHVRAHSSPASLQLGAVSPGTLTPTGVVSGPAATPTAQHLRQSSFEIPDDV
T1 sequence (P46937 whole entry): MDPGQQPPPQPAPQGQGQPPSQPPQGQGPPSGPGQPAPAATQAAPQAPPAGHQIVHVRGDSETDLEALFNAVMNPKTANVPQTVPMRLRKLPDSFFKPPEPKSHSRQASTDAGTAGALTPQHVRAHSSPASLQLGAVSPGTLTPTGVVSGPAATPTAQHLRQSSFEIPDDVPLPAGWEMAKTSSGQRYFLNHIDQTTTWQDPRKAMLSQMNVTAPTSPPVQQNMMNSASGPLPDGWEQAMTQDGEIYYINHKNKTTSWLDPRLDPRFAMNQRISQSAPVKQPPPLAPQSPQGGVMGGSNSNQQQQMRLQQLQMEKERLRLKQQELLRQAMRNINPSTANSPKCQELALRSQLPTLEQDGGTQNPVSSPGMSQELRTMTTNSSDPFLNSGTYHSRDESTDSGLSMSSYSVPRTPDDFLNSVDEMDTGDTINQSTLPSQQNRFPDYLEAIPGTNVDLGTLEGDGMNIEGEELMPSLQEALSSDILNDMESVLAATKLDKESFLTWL

COc1ccc(-c2cc(-c3ccccc3)nc3c2CC(=O)Nc2ccccc2-3)cc1OC [NSC682769]
Kd (full-length YAP): 738 nM | Inhibition of His-tagged YAP1 and GST-TEAD1 association [1]: marked inhibition | Toxicity to normal human neurons (normal human neurons): minimal toxicity
